The structures appear in SMILES notation. A value given as a limit tells only on which side of the number the result lay.

For this test, the target named is T1, alpha4-beta7 on RPMI 8866 cells binding to MadCAM (Homo sapiens, UniProt P13612+P26010).
T1 construct: endogenous in cells; host or cells: RPMI 8866 cells
T1 sequence (P13612 34-1032): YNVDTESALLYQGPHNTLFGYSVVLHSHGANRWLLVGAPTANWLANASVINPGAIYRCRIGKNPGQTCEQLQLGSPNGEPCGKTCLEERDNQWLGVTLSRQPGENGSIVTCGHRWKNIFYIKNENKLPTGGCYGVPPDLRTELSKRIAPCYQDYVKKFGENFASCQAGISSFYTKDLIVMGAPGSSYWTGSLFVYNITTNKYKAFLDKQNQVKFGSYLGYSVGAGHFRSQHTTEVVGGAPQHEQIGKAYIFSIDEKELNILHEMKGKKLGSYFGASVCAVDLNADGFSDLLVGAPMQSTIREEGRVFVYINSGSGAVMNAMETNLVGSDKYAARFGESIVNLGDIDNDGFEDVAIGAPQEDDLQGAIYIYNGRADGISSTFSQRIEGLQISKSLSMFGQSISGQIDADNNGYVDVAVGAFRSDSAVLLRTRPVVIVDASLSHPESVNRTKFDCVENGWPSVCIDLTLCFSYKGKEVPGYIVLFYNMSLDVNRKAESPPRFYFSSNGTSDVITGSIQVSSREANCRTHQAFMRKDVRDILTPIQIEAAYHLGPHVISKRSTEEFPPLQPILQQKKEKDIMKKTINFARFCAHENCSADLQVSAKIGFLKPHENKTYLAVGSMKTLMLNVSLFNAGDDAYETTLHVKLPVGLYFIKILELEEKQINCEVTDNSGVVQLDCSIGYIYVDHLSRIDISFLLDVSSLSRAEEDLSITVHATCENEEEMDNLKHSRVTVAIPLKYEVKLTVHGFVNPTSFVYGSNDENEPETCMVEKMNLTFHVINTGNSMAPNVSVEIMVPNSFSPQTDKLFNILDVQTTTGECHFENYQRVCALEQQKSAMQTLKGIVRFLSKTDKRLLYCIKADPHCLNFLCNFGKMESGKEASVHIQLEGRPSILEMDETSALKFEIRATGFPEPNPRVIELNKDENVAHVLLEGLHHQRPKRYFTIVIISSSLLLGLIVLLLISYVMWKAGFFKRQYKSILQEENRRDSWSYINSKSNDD
T1 sequence (P26010 20-798): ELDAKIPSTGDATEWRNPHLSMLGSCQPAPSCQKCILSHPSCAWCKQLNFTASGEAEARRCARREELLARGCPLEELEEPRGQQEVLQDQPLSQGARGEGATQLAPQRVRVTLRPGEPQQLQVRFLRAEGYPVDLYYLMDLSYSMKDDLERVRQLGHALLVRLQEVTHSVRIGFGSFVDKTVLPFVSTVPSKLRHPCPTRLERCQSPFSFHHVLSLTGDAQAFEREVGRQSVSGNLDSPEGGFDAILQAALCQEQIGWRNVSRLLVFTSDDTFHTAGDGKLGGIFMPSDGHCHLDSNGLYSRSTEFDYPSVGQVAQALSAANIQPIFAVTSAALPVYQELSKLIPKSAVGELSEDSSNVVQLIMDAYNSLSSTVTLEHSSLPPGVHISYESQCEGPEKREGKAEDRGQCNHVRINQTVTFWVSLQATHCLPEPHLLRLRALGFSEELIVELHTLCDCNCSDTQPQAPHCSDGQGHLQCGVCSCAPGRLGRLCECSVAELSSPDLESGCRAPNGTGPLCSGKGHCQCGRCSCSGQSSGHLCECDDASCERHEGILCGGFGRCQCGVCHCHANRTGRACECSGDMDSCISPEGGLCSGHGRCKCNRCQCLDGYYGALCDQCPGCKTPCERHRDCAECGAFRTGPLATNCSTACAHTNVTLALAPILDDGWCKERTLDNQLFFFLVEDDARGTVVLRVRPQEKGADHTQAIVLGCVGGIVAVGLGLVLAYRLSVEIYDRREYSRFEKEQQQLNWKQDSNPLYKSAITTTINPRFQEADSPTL
Kind of test: Alpha4-Beta7 Assay (MadCAM/RPMI 8866 cell adhesion). Format: cell-based. Particulars: calcein labeled RPMI 8866 cells, MadCAM coated plates. Here is the method:
Alpha4-Beta7 Assay Protocol
Two weeks to one day prior to the assay, Nunc high-binding F96 Maxisorp immuno plates, #442404 or #439454, were coated with 25 ng/well (0.25 μg/ml) MadCAM in a volume of 100 μl/well. The plates were covered with sealer and wrapped in saran wrap followed by incubation in the refrigerator for at least 24 hours. The coating buffer employed was: 10 mM carbonate/bicarbonate buffer made up from: 0.8 g/L sodium carbonate and 1.55 g/L sodium bicarbonate adjusted to pH 9.6 with 1 N HCl.
Assay buffers consisted of the following: • Wash Buffer: 0.05% Tween 20 in PBS • Blocking Buffer: 1% Nonfat Dry Milk in PBS • Labeling Buffer: PBS • Cell Buffer: RPMI 1640 medium (no additives) • Binding Buffer: 1.5 mM CaCl2 • 0.5 mM MnCl2 • 50 mM TRIS-HCl; add NaOH dropwise to pH 7.5 • Bring to volume in H2O • Adjust to pH 7.5 • Dilution Buffer: 4% DMSO in Binding Buffer
Plates were washed 2× with wash buffer and then blocked at room temperature for at least 1 hour with Blocking Buffer. Sealed plates were sometimes blocked overnight in the refrigerator. Plates were then washed with PBS and hand blotted dry. Remaining liquid was aspirated from the wells.
Sufficient RPMI 8866 cells were removed from stock for assay (2×10^6 cells/ml×10 ml/plate×number of plates) and placed in a centrifuge tube. The tubes were filled to volume with PBS and were spun at 200×G for 8 minutes. The buffer was poured off and the cells were resuspended to 10×10^6/ml in PBS and a stock solution of calcein in DMSO (5 mg/mL) was added at 5 μl/ml of cell suspension. The suspension was incubated for 30 minutes at 37° C. in dark. The cells were then washed with PBS. The PBS was poured off and the cells resuspended in cell buffer at a concentration of 2×10^6 cells/mL for plating in the assay.
Stock solution of test compounds at 25× first dilution desired in 100% DMSO were prepared. First dilutions for the standard, as well as test compounds, were 1:25 into straight Binding Buffer, while the remaining serial dilutions were into Dilution Buffer (Binding Buffer/4% DMSO). Stock concentrations and dilutions of compounds for screening were determined by anticipated activity.
For the assay, 129 μl Binding Buffer was plated into first row of wells and 100 μl Dilution Buffer was plated into remaining wells. A 5.4 μl aliquot of each compound was pipetted into appropriate, labeled wells, in triplicate. The compounds were next diluted down the plate (34 μl+100 μl=>4-fold dilution). For controls, 100 μl of Dilution Buffer+100 μl Cell Buffer were plated into the nonspecific background wells (no cells, no compound) and 100 μl Dilution Buffer+100 μl cells were plated into the total binding wells (no compound=100% binding). Labeled cells at 2×10^6 cells/ml, 100μl/well (=2×10^5 cells/well) were added to each well containing compound. The plates were sealed and incubated in the dark for 45 minutes at room temperature. Following incubation, unbound cells were removed by adding 150 μl PBS/well. The plates were inverted, blotted onto paper towels and washed by gently adding 200 μl PBS to wells and blotting again. Remaining buffer was carefully aspirated from the wells. A final 100 μl PBS was added to each well.
The plates were then read for fluorescence intensity on a Cytofluor 2300 (Millipore) fluorecence measurement system (excitation=485 nm, emission=530 nm). IC50s of each compound were determined by linear regression analysis.
As to `Cc1cccc(Cl)c1C(=O)N[C@@H](Cc1ccc(-c2cccn(C)c2=O)cc1)C(=O)O` [Example 30, N-[(2-chloro-6-methylphenyl)carbonyl]-4-(1-methyl-2-oxo-3-pyridinyl)-L-phenylalanine], the IC50 is less than 10 µM.

Regarding `Cc1ccn(C)c(=O)c1-c1ccc(C[C@H](NC(=O)c2c(Cl)cccc2Cl)C(=O)O)cc1` [Example 31, N-[(2,6-dichlorophenyl)carbonyl]-4-(1,4-dimethyl-2-oxo-3-pyridinyl)-L-phenylalanine], the IC50 was less than 10 µM.

With `Cc1cccc(Cl)c1C(=O)N[C@@H](Cc1ccc(-c2c(C)ccn(C)c2=O)cc1)C(=O)O` [Example 32, N-[(2-chloro-6-methylphenyl)carbonyl]-4-(1,4-dimethyl-2-oxo-3-pyridinyl)-L-phenylalanine], the IC50 is less than 10 µM.

For the compound `Cc1cc(C(F)(F)F)c(-c2ccc(C[C@H](NC(=O)c3c(Cl)cccc3Cl)C(=O)O)cc2)c(=O)n1C` [Example 33, N-[(2,6-dichlorophenyl)carbonyl]-4-[1,6-dimethyl-4-(trifluoromethyl)-2-oxo-3-pyridinyl]-L-phenylalanine], the IC50 was less than 0.1 µM.

Turning to `CCc1cccc(C)c1C(=O)N[C@@H](Cc1ccc(-c2c(C(F)(F)F)cc(C)n(C)c2=O)cc1)C(=O)O` [Example 34, N-[(2-ethyl-6-methylphenyl)carbonyl]-4-[1,6-dimethyl-4-(trifluoromethyl)-2-oxo-3-pyridinyl]-L-phenylalanine], the concentration for half-maximal inhibition (IC50) is less than 10 µM.

Regarding `Cc1cccc(C(C)C)c1C(=O)N[C@@H](Cc1ccc(-c2c(C(F)(F)F)cc(C)n(C)c2=O)cc1)C(=O)O` [Example 35, N-[(2-(1-methylethyl)-6-methylphenyl)carbonyl]-4-[1,6-dimethyl-4-(trifluoromethyl)-2-oxo-3-pyridinyl]-L-phenylalanine], the half-maximal inhibitory concentration (IC50) was less than 5 µM.

In the case of `Cc1cccc(Cl)c1C(=O)N[C@@H](Cc1ccc(-c2c(C(F)(F)F)cc(C)n(C)c2=O)cc1)C(=O)O` [Example 36, N-[(2-chloro-6-methylphenyl)carbonyl]-4-[1,6-dimethyl-4-(trifluoromethyl)-2-oxo-3-pyridinyl]-L-phenylalanine], the IC50 was less than 10 µM.

For the compound `COCCC1(C(=O)N[C@@H](Cc2ccc(-c3c(C(F)(F)F)cc(C)n(C)c3=O)cc2)C(=O)O)CCCC1` [Example 37, N-[[1-(2-methoxyethyl)cyclopentyl]carbonyl]-4-[1,6-dimethyl-4-(trifluoromethyl)-2-oxo-3-pyridinyl]-L-phenylalanine], the half-maximal inhibitory concentration (IC50) was less than 10 µM.

The record behind these values is US6916933B2, “4-pyridinyl-n-acyl-l-phenylalanines” (Hoffman-La Roche Inc., priority 1999, dated 2005).
